Data from patent publication US20070239107A1, “Device and Method for Administering Therapeutic Agents” (priority 2003, published 2007).

Experiments:
[1] = Kinetics of NO release from the retention balloon (headspace chemiluminescence); assay type: physicochemical; settings: balloon filled with ascorbic acid/nitrite solution; NO-free air flush 4.5 L/min
Text: The kinetics of NO release from the retention balloon was monitored in separate experiments. The catheter was placed in the flask and after filling the retention balloon with the ascorbic acid/nitrite solution the flask was closed. Synthetic NO-free air was flushed via an inlet at a rate of 4.5 L/min and headspace NO was continuously measured from an outlet by a rapid-response chemiluminescence system (Aerocrine AB, Stockholm, Sweden).

[2] = tested on: E. coli isolated from a patient with urinary tract infection and E. coli ATCC 25992; test: Viable counts of E. coli in urine surrounding the filled retention balloon; assay type: cell-based; settings: solution in retention balloon, start 10^5 cfu/ml, 37° C.
[3] = tested on: E. coli; test: Comparative experiment with traditional antibiotic in retention balloon or directly in urine
Experimental: An overnight culture was added to 25 ml of urine to a final density of 10^5 CFU/ml. The urine was placed in long-necked 50 ml flasks with a shape resembling the urinary bladder and the urethra. An all-silicone catheter (Argyle, Sherwood Medical, Tullamore, Ireland) was placed in the flask and the retention balloon was filled with 10 ml of saline containing ascorbic acid (10 mM) and sodium nitrite (5 mM). The pH of the solution was adjusted to 2.5 using hydrochloric acid (3 M). Ascorbic acid and nitrite were prepared and mixed immediately before administration. Ascorbic acid solution alone (pH 2.5) was used as control. After filling the retention balloons the catheter was gently pulled outwards and fixed at the neck whereby the flask opening was sealed off. Then the flasks were turned up side down and incubated at 37° C. for 24 h. At the end of the experiment the urine was serially diluted and further cultured on blood agar plates for determination of viable counts (cfu/ml). All experiments were made in quadruplicate.
In a separate flask ciprofloxacin was added directly to the urine.

## [N]=O [NO, nitric oxide]
[1]
  half-time of decrease of NO release rate from the balloons: about 30 min

## O=C1O[C@H]([C@@H](O)CO)C(O)=C1O [ascorbic acid alone, ascorbic acid]
[2]
  bacterial counts after 24 h: 10^8 cfu/ml

## O=C(O)c1cn(C2CC2)c2cc(N3CCNCC3)c(F)cc2c1=O [ciprofloxacin]
[3]; antibiotic added directly to the urine
  antibacterial effect in urine: effectively killed the bacteria
[3]; antibiotic placed in the retention balloon
  antibacterial effect in the urine surrounding the balloon: no antibacterial effect
